Values quoted from earlier work as cited in patent US9889109B2, “Pharmaceutical composition comprising benzyl alcohol for the treatment of migraines” (St. Renatus, LLC, priority 2012, dated 2018).

Q: Which results are given for `CCCCNc1ccc(C(=O)OCCN(C)C)cc1` [tetracaine, 2-(dimethylamino)ethyl 4-(butylamino)benzoate]?
A: pKa: approximately 8.4; unionized molecules (pH 7.4): 1-2%
